Measurements as given in paper PMC6114901, “An automated screening method for detecting compounds with goitrogenic activity using transgenic zebrafish embryos” (PLoS ONE, 2018).
pEC50: −log10 of the molar value. Read-outs that look alike come from different tables or passages of the source.

Key:
zebrafish embryos = assay: in vivo; settings: for LC10: unit not given, in µM; for Slope: mortality concentration-response curve
Procedure: Fish embryo acute toxicity tests were performed similar as described previously, using 10 or 25 embryos per concentration and replicate exposed in crystallization dishes from 48 to 120 hpf. No exchange of exposure media was performed. Lethality was identified by coagulation, missing heartbeat, a non–detached tail and/or missing of somites. Raw data for mortality and phenotypic assessment are provided as S1 Table. Concentration-response curves for mortality are shown in S2 Fig.

[1] = tested on: thyroid hormone levels (T4); settings: ref Thienpont et al. [13], cited from earlier work
[2] = 72 hpf, 15000 µmol/L, replicate 2, 10 embryos
[3] = 72 hpf, 30000 µmol/L, replicate 2, 10 embryos
[4] = 72 hpf, 50000 µmol/L, replicate 1, 10 embryos
[5] = 72 hpf, 100000 µmol/L, replicate 1, 10 embryos
[6] = 96 hpf, 20000 µmol/L, replicate 2, 10 embryos
[7] = 96 hpf, 25000 µmol/L, replicate 2, 10 embryos
[8] = 96 hpf, 30000 µmol/L, replicate 2, 10 embryos
[9] = 96 hpf, 50000 µmol/L, replicate 1, 10 embryos
[10] = 96 hpf, 50000 µmol/L, replicate 2, 10 embryos
[11] = 96 hpf, 100000 µmol/L, replicate 1, 10 embryos
[12] = 120 hpf, 10000 µmol/L, replicate 1, 10 embryos
[13] = 120 hpf, 15000 µmol/L, replicate 2, 10 embryos
[14] = 120 hpf, 20000 µmol/L, replicate 2, 10 embryos
[15] = 120 hpf, 25000 µmol/L, replicate 1, 10 embryos
[16] = 120 hpf, 25000 µmol/L, replicate 2, 10 embryos
[17] = 120 hpf, 30000 µmol/L, replicate 2, 10 embryos
[18] = 120 hpf, 40000 µmol/L, replicate 2, 10 embryos
[19] = 120 hpf, 50000 µmol/L, replicate 1, 10 embryos
[20] = 120 hpf, 50000 µmol/L, replicate 2, 10 embryos
[21] = 120 hpf, 100000 µmol/L, replicate 1, 10 embryos

[K+].[O-][Cl+3]([O-])([O-])[O-] [Potassium perchlorate, potassium perchlorate]
10: No Surviving (zebrafish embryos; 72 hpf, 1000 µmol/L, replicate 1, 10 embryos) | No Surviving (zebrafish embryos; 72 hpf, 5000 µmol/L, replicate 1, 10 embryos) | No Surviving (zebrafish embryos; 72 hpf, 10000 µmol/L, replicate 1, 10 embryos) | No Surviving (zebrafish embryos; [2]) | No Surviving (zebrafish embryos; 72 hpf, 20000 µmol/L, replicate 2, 10 embryos) | No Surviving (zebrafish embryos; 72 hpf, 25000 µmol/L, replicate 1, 10 embryos) | No Surviving (zebrafish embryos; 72 hpf, 25000 µmol/L, replicate 2, 10 embryos) | No Surviving (zebrafish embryos; 72 hpf, 40000 µmol/L, replicate 2, 10 embryos) | No Surviving (zebrafish embryos; 72 hpf, 50000 µmol/L, replicate 2, 10 embryos) | No Surviving (zebrafish embryos; 96 hpf, 1000 µmol/L, replicate 1, 10 embryos) | No Surviving (zebrafish embryos; 96 hpf, 5000 µmol/L, replicate 1, 10 embryos) | No Surviving (zebrafish embryos; 96 hpf, 10000 µmol/L, replicate 1, 10 embryos) | No Surviving (zebrafish embryos; 96 hpf, 15000 µmol/L, replicate 2, 10 embryos) | No Surviving (zebrafish embryos; 96 hpf, 25000 µmol/L, replicate 1, 10 embryos) | No Surviving (zebrafish embryos; 96 hpf, 40000 µmol/L, replicate 2, 10 embryos) | Lethal effects nohb (zebrafish embryos; [11]) | Sublethal effects nobc (zebrafish embryos; [11]) | No Surviving (zebrafish embryos; 120 hpf, 1000 µmol/L, replicate 1, 10 embryos) | No Surviving (zebrafish embryos; 120 hpf, 5000 µmol/L, replicate 1, 10 embryos) | Lethal effects nohb (zebrafish embryos; [21])
7: No Surviving (zebrafish embryos; [4]) | No Surviving (zebrafish embryos; [6]) | No Surviving (zebrafish embryos; [18]) | Sublethal effects Total Sublethal (zebrafish embryos; [18]) | Sublethal effects nobc (zebrafish embryos; [18])
1: Sublethal effects mtail (zebrafish embryos; [2]) | Lethal effects k/f (zebrafish embryos; [3]) | Sublethal effects tip (zebrafish embryos; [4]) | Lethal effects nohb (zebrafish embryos; [5]) | Sublethal effects Total Sublethal (zebrafish embryos; [6]) | Sublethal effects mtail (zebrafish embryos; [6]) | Lethal effects k/f (zebrafish embryos; [8]) | Lethal effects k/f (zebrafish embryos; [9]) | Sublethal effects nomov (zebrafish embryos; [9]) | Sublethal effects tip (zebrafish embryos; [9]) | Lethal effects k/f (zebrafish embryos; [10]) | Lethal effects nohb (zebrafish embryos; [12]) | Sublethal effects EdY / EdP (zebrafish embryos; [12]) | Sublethal effects Total Sublethal (zebrafish embryos; [12]) | Lethal effects k/f (zebrafish embryos; [13]) | No Surviving (zebrafish embryos; [15]) | Sublethal effects Total Sublethal (zebrafish embryos; [15]) | Sublethal effects nobc (zebrafish embryos; [15]) | Lethal effects k/f (zebrafish embryos; [17]) | Lethal effects k/f (zebrafish embryos; [18]) | Lethal effects nohb (zebrafish embryos; [20])
2: Sublethal effects nobc (zebrafish embryos; [9]) | Lethal effects nohb (zebrafish embryos; [16]) | Lethal effects nohb (zebrafish embryos; [18])
0: No Surviving (zebrafish embryos; [11]) | No Surviving (zebrafish embryos; [21])
4: No Surviving (zebrafish embryos; [7]) | Sublethal effects Total Sublethal (zebrafish embryos; [7]) | Sublethal effects nobc (zebrafish embryos; [7]) | Lethal effects nohb (zebrafish embryos; [9]) | No Surviving (zebrafish embryos; [13]) | Lethal effects k/f (zebrafish embryos; [14]) | Lethal effects k/f (zebrafish embryos; [16]) | No Surviving (zebrafish embryos; [16]) | Sublethal effects Total Sublethal (zebrafish embryos; [16]) | Sublethal effects nobc (zebrafish embryos; [16]) | Lethal effects nohb (zebrafish embryos; [19]) | Lethal effects k/f (zebrafish embryos; [20])
8: Sublethal effects Total Sublethal (zebrafish embryos; [5])
10862: LC10 (zebrafish embryos; mortality after 48 h of exposure, S2 Fig)
5: Sublethal effects beh (zebrafish embryos; [5]) | No Surviving (zebrafish embryos; [9]) | Lethal effects nohb (zebrafish embryos; [13]) | Sublethal effects Total Sublethal (zebrafish embryos; [13]) | Sublethal effects mtail (zebrafish embryos; [13]) | No Surviving (zebrafish embryos; [20]) | Sublethal effects Total Sublethal (zebrafish embryos; [20]) | Sublethal effects nobc (zebrafish embryos; [20])
3: Lethal effects k/f (zebrafish embryos; [4]) | Sublethal effects nomov (zebrafish embryos; [5]) | Lethal effects nohb (zebrafish embryos; [6]) | Sublethal effects Total Sublethal (zebrafish embryos; [9])
6030: TDI (T4) ([1]; thyroid disruption index based on T4 reduction)
33.1 mM: LC50 (zebrafish embryos; mortality after 72 h of exposure, S2 Fig, unit inferred) | LC50 (zebrafish embryos; read-out: LC50 (48–120 hpf), mortality, embryos exposed 48–120 hpf)
9: No Surviving (zebrafish embryos; [3]) | No Surviving (zebrafish embryos; [5]) | Lethal effects nohb (zebrafish embryos; [8]) | No Surviving (zebrafish embryos; [10]) | No Surviving (zebrafish embryos; [12]) | Lethal effects nohb (zebrafish embryos; [15]) | No Surviving (zebrafish embryos; [17]) | Sublethal effects Total Sublethal (zebrafish embryos; [17]) | Sublethal effects nobc (zebrafish embryos; [17])
1.43: Slope (zebrafish embryos; 48 h of exposure)
6: Lethal effects nohb (zebrafish embryos; [7]) | No Surviving (zebrafish embryos; [14]) | Sublethal effects Total Sublethal (zebrafish embryos; [14]) | Sublethal effects nobc (zebrafish embryos; [14]) | No Surviving (zebrafish embryos; [19]) | Sublethal effects Total Sublethal (zebrafish embryos; [19]) | Sublethal effects nobc (zebrafish embryos; [19])
50.3 mM: LC50 (zebrafish embryos; mortality after 48 h of exposure, S2 Fig, unit inferred)
5.60: pEC50 ([1]; read-out: EC50 T4 reduction, reduction of thyroid hormone levels (immunostaining))
3232: LC10 (zebrafish embryos; mortality after 72 h of exposure, S2 Fig)
0.944: Slope (zebrafish embryos; 72 h of exposure)
